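Each compound was tested at five concentrations against cells in 96-well plates for 48 hours. GI50 is the concentration that inhibits growth by half.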 The source made the active and inactive calls. Rule as the data show it: active = GI50 up to about 1.1 µM and inactive = higher.
Experiments:
Assay in all cases: growth of human tumour cells (NCI), 48 h
[1] = tested on: LXFL 529
[2] = tested on: KM-20L2
[3] = tested on: DLD-1
[4] = tested on: XF498
[5] = tested on: HOP-18
[6] = tested on: SNB-78
[7] = tested on: M19-MEL
[8] = tested on: DMS-273
[9] = tested on: RXF 631

Compound: CC1=NN(C(=O)c2ccccc2O)C(=O)/C1=C/c1ccccc1O
- GI50 [1]: 0.0573 µM (active)
- GI50 [2]: 11.5 µM (inactive)
- GI50 [3]: 0.0807 µM (active)
- GI50 [4]: 0.365 µM (active)

Compound: CNC(=O)OCc1nccc2c(C)c3[nH]c4ccc(OC)cc4c3cc12
- GI50 [1]: 5.74 µM (inactive)
- GI50 [2]: 3.11 µM (inactive)
- GI50 [5]: 2.47 µM (inactive)
- GI50 [3]: 2.99 µM (inactive)
- GI50 [6]: 16.6 µM (inactive)
- GI50 [7]: 5.61 µM (inactive)
- GI50 [4]: 14.1 µM (inactive)
- GI50 [8]: 7.23 µM (inactive)

Compound: N#Cc1c2c(c(Cl)n3c1nc1ccccc13)CCCC2
- GI50 [2]: 2.49 µM (inactive)
- GI50 [3]: 10.6 µM (inactive)
- GI50 [6]: 3.89 µM (inactive)
- GI50 [7]: 3.61 µM (inactive)
- GI50 [4]: 2.14 µM (inactive)
- GI50 [8]: 1.09 µM (active)

Compound: NC1=NC(=O)/C(=C/c2ccccc2[N+](=O)[O-])C(N)=N1
- GI50 [1]: > 100 µM (inactive)
- GI50 [2]: > 100 µM (inactive)
- GI50 [5]: > 100 µM (inactive)
- GI50 [3]: > 100 µM (inactive)
- GI50 [9]: > 100 µM (inactive)
- GI50 [6]: > 100 µM (inactive)
- GI50 [7]: > 100 µM (inactive)
- GI50 [4]: > 100 µM (inactive)
- GI50 [8]: > 100 µM (inactive)

Compound: C=CCN(CC=C)CC(C(C)=O)C(c1ccccc1)c1c(O)c2ccccc2oc1=O (stereo not given)
- GI50 [1]: > 100 µM (inactive)
- GI50 [2]: 82.8 µM (inactive)
- GI50 [3]: > 100 µM (inactive)
- GI50 [6]: > 100 µM (inactive)
- GI50 [7]: > 100 µM (inactive)
- GI50 [4]: > 100 µM (inactive)
- GI50 [8]: > 100 µM (inactive)

Compound: Nn1c(=O)n(Cc2ccccc2)n(-c2ccccc2)c1=O
- GI50 [1]: > 100 µM (inactive)
- GI50 [3]: > 100 µM (inactive)
- GI50 [6]: > 100 µM (inactive)
- GI50 [4]: > 100 µM (inactive)
- GI50 [8]: > 100 µM (inactive)

Compound: CCOc1ccccc1NC(=O)CC1SC(Nc2ccc([N+](=O)[O-])cc2)=NC1=O (stereo not given)
- GI50 [1]: 17.7 µM (inactive)
- GI50 [2]: 19.4 µM (inactive)
- GI50 [5]: 17.6 µM (inactive)
- GI50 [3]: 22.9 µM (inactive)
- GI50 [6]: 28.8 µM (inactive)
- GI50 [7]: 25.4 µM (inactive)
- GI50 [4]: 15.8 µM (inactive)

Compound: COC(=O)N1C=CC2=C(C)C3Nc4ccccc4C3C(C)=C2C1 (stereo not given)
- GI50 [1]: 0.953 µM (active)
- GI50 [2]: 0.697 µM (active)
- GI50 [3]: 1.74 µM (inactive)
- GI50 [6]: 0.546 µM (active)
- GI50 [7]: 2.78 µM (inactive)
- GI50 [4]: 2.48 µM (inactive)
- GI50 [8]: 0.301 µM (active)

Compound: Cc1ccc(C(=O)/C=C2\Nc3c(c(=O)oc4ccccc34)N=C2NC23CC4CC(CC(C4)C2)C3)cc1
- GI50 [1]: > 100 µM (inactive)
- GI50 [2]: > 100 µM (inactive)
- GI50 [3]: 89.9 µM (inactive)
- GI50 [7]: > 100 µM (inactive)
- GI50 [4]: > 100 µM (inactive)
- GI50 [8]: > 100 µM (inactive)

Compound: Cc1ccccc1NC(=O)/C(=N/NC(=O)CC#N)C1C(=O)N(c2ccccc2)N=C1N (stereo not given)
- GI50 [1]: > 100 µM (inactive)
- GI50 [2]: > 100 µM (inactive)
- GI50 [5]: > 100 µM (inactive)
- GI50 [3]: 79.6 µM (inactive)
- GI50 [9]: > 100 µM (inactive)
- GI50 [6]: > 100 µM (inactive)
- GI50 [7]: > 100 µM (inactive)
- GI50 [4]: > 100 µM (inactive)
- GI50 [8]: > 100 µM (inactive)

Compound: CN(C)CCNC(=O)c1ccc(Cl)c2c(Nc3ccc(S(=O)(=O)N=C(N)N)cc3)c3ccccc3nc12
- GI50 [1]: 3.94 µM (inactive)
- GI50 [2]: 5.53 µM (inactive)
- GI50 [3]: 5.62 µM (inactive)
- GI50 [6]: 12.1 µM (inactive)
- GI50 [7]: 3.86 µM (inactive)
- GI50 [4]: 4.51 µM (inactive)
- GI50 [8]: 1.79 µM (inactive)

Compound: O=C1C=C(Nc2ccccc2C(=O)CC(=O)C(=O)Nc2cccc(C(F)(F)F)c2)c2ccccc2C1=O
- GI50 [1]: 18.3 µM (inactive)
- GI50 [2]: > 100 µM (inactive)
- GI50 [5]: 13.2 µM (inactive)
- GI50 [3]: 8.45 µM (inactive)
- GI50 [9]: > 100 µM (inactive)
- GI50 [6]: > 36.7 µM (inactive)
- GI50 [7]: 2.53 µM (inactive)
- GI50 [4]: 26.2 µM (inactive)
- GI50 [8]: 21.5 µM (inactive)

Compound: CC1(C)C(=O)N(CCCCCCN2C(=O)C(C)(C)c3ccccc32)c2ccccc21
- GI50 [1]: 39.1 µM (inactive)
- GI50 [2]: 37.2 µM (inactive)
- GI50 [5]: 81.1 µM (inactive)
- GI50 [6]: 96.4 µM (inactive)
- GI50 [7]: 22.6 µM (inactive)
- GI50 [4]: 16.5 µM (inactive)
- GI50 [8]: 40.9 µM (inactive)

Compound: CCOC(=O)COc1ccccc1/C=C1\CCC(CN(C)C)C1=O (stereo not given)
- GI50 [1]: 2.45 µM (inactive)
- GI50 [2]: 11.6 µM (inactive)
- GI50 [5]: 23.2 µM (inactive)
- GI50 [3]: 3.99 µM (inactive)
- GI50 [9]: 17.9 µM (inactive)
- GI50 [6]: 21.2 µM (inactive)
- GI50 [7]: 3.18 µM (inactive)
- GI50 [8]: 2.91 µM (inactive)

Compound: CCOC(=O)C(=O)Nc1ccccc1C(C)C
- GI50 [1]: > 100 µM (inactive)
- GI50 [2]: > 100 µM (inactive)
- GI50 [5]: > 100 µM (inactive)
- GI50 [3]: > 100 µM (inactive)
- GI50 [9]: > 100 µM (inactive)
- GI50 [7]: > 100 µM (inactive)
- GI50 [4]: > 100 µM (inactive)
- GI50 [8]: > 100 µM (inactive)

Compound: C1=C2/CC[C@H](Sc3ccccc3)[C@H]2C2(CCCCC/1)OCCO2
- GI50 [1]: 46.7 µM (inactive)
- GI50 [2]: 21.1 µM (inactive)
- GI50 [5]: 72.8 µM (inactive)
- GI50 [3]: 61.4 µM (inactive)
- GI50 [6]: 94 µM (inactive)
- GI50 [7]: 25.1 µM (inactive)
- GI50 [8]: 39.4 µM (inactive)

Compound: COc1ccc(CN2C(=O)C(Cc3cc(OC)c(OC)c(C)c3OC)NC(=O)/C2=C/c2cc(OC)c(OC)c(C)c2OC)cc1 (stereo not given)
- GI50 [1]: 31.8 µM (inactive)
- GI50 [2]: 25 µM (inactive)
- GI50 [5]: 26.1 µM (inactive)
- GI50 [3]: 33 µM (inactive)
- GI50 [9]: 43 µM (inactive)
- GI50 [7]: 19.3 µM (inactive)
- GI50 [8]: > 10 µM (inactive)

Compound: CN(C)CC1(Cc2ccccc2)CCC(Cc2ccccc2)C1=O (stereo not given)
- GI50 [1]: 2.71 µM (inactive)
- GI50 [2]: 17.1 µM (inactive)
- GI50 [5]: 8.47 µM (inactive)
- GI50 [3]: 2.86 µM (inactive)
- GI50 [6]: 15.8 µM (inactive)
- GI50 [7]: 16.5 µM (inactive)
- GI50 [4]: 21.9 µM (inactive)
- GI50 [8]: 10.5 µM (inactive)

Compound: CC1=CP(=O)(OC(C)C)CC(C)=C1Cl (stereo not given)
- GI50 [1]: > 100 µM (inactive)
- GI50 [2]: > 100 µM (inactive)
- GI50 [3]: > 100 µM (inactive)
- GI50 [6]: > 100 µM (inactive)
- GI50 [7]: > 100 µM (inactive)
- GI50 [8]: 98.4 µM (inactive)

Compound: Cn1nc(-c2ccccc2)c(C(=O)/C=C/c2ccc(F)cc2)c(N2CCOCC2)c1=O
- GI50 [1]: 16 µM (inactive)
- GI50 [2]: 15.1 µM (inactive)
- GI50 [5]: 17.3 µM (inactive)
- GI50 [3]: 23.1 µM (inactive)
- GI50 [9]: 27.7 µM (inactive)
- GI50 [7]: 18.5 µM (inactive)
- GI50 [4]: 19.8 µM (inactive)
- GI50 [8]: 19.1 µM (inactive)

Compound: COC(=O)C1=CC2C=CC(C1C(=O)OC)C1C(C(=O)OC)=C(C(=O)OC)C(C(=O)OC)=C(C(=O)OC)C21OC (stereo not given)
- GI50 [1]: > 100 µM (inactive)
- GI50 [2]: > 100 µM (inactive)
- GI50 [5]: > 100 µM (inactive)
- GI50 [3]: > 100 µM (inactive)
- GI50 [9]: > 100 µM (inactive)
- GI50 [6]: > 100 µM (inactive)
- GI50 [7]: > 100 µM (inactive)
- GI50 [8]: > 100 µM (inactive)

Compound: COc1ccc2cccc(C(=O)c3ccc(C)c4c3CCC4)c2c1
- GI50 [1]: 29.6 µM (inactive)
- GI50 [2]: 35.9 µM (inactive)
- GI50 [5]: 33.3 µM (inactive)
- GI50 [3]: 21.5 µM (inactive)
- GI50 [9]: 23 µM (inactive)
- GI50 [7]: 37.8 µM (inactive)
- GI50 [8]: 29.1 µM (inactive)

Compound: CN1C(=O)CCC2[C@@H]3CC=C4C[C@@H](O)CC[C@]4(C)C3CC[C@@]21C (stereo not given in full)
- GI50 [1]: 29.1 µM (inactive)
- GI50 [2]: 53.5 µM (inactive)
- GI50 [3]: > 100 µM (inactive)
- GI50 [9]: 28 µM (inactive)
- GI50 [6]: > 100 µM (inactive)
- GI50 [7]: 50.6 µM (inactive)
- GI50 [4]: 45.7 µM (inactive)
- GI50 [8]: 64.1 µM (inactive)

Compound: O=c1c2c([nH]c3cc4c(cc13)OCO4)-c1ccccc1C2
- GI50 [1]: 22.7 µM (inactive)
- GI50 [2]: 19 µM (inactive)
- GI50 [5]: 24.2 µM (inactive)
- GI50 [3]: 23.5 µM (inactive)
- GI50 [6]: 30.5 µM (inactive)
- GI50 [4]: 24.2 µM (inactive)
- GI50 [8]: 19.2 µM (inactive)

Compound: O=C(N[C@H]1CC2(C=C(I)C(=O)C(I)=C2)OC1=O)OCc1ccccc1
- GI50 [1]: 16.6 µM (inactive)
- GI50 [2]: 18.6 µM (inactive)
- GI50 [3]: 15.7 µM (inactive)
- GI50 [9]: 17.1 µM (inactive)
- GI50 [6]: 17.4 µM (inactive)
- GI50 [4]: 13.8 µM (inactive)

Compound: O=S1(=O)N2CN3CN(C2)CN1C3
- GI50 [1]: 18.2 µM (inactive)
- GI50 [2]: > 91.8 µM (inactive)
- GI50 [5]: > 50.1 µM (inactive)
- GI50 [3]: 33.4 µM (inactive)
- GI50 [6]: 28.1 µM (inactive)
- GI50 [7]: 62.1 µM (inactive)
- GI50 [4]: > 100 µM (inactive)
- GI50 [8]: 27 µM (inactive)

Compound: Cc1c(C(=O)O)oc2ccc([N+](=O)[O-])cc12
- GI50 [1]: > 100 µM (inactive)
- GI50 [2]: > 100 µM (inactive)
- GI50 [5]: > 100 µM (inactive)
- GI50 [3]: > 100 µM (inactive)
- GI50 [9]: > 100 µM (inactive)
- GI50 [6]: > 100 µM (inactive)
- GI50 [7]: > 100 µM (inactive)
- GI50 [4]: > 100 µM (inactive)
- GI50 [8]: > 100 µM (inactive)

Compound: CCOC(=O)C1=C(C)NC(=S)NC1c1ccccc1 (stereo not given)
- GI50 [1]: 76.4 µM (inactive)
- GI50 [2]: > 41.4 µM (inactive)
- GI50 [5]: > 35.6 µM (inactive)
- GI50 [3]: > 57.9 µM (inactive)
- GI50 [9]: > 100 µM (inactive)
- GI50 [6]: > 100 µM (inactive)
- GI50 [7]: > 43.9 µM (inactive)
- GI50 [4]: > 39.4 µM (inactive)
- GI50 [8]: > 100 µM (inactive)

Reference: ChEMBL document CHEMBL1201862, “PubChem BioAssay data set” (2004)
